Laboratory results as given in the NIST ThermoML archive (doi:10.1021/je900050z).
“And” between values parts separate entries of the source, which are not always exact repeats. Equal values may be shown once. Numbers after ± are expanded uncertainties.

Settings: Liquid

C1CCCCC1 [cyclohexane]
Settings | vapor or sublimation pressure
295.42 K | 11.15 ± 0.89 kPa
295.45 K | 11.16 ± 0.89 kPa
295.46 K | 11.17 ± 0.89 kPa
295.72 K | 11.33 ± 0.91 kPa
295.75 K | 11.35 ± 0.91 kPa
296.22 K | 11.63 ± 0.93 kPa
297.08 K | 12.15 ± 0.97 kPa
297.13 K | 12.16 ± 0.97 kPa and 12.17 ± 0.97 kPa
297.86 K | 12.61 ± 1 kPa
297.99 K | 12.71 ± 1 kPa
298.83 K | 13.23 ± 1.1 kPa
299.75 K | 13.8 ± 1.1 kPa
299.77 K | 13.81 ± 1.1 kPa
300.85 K | 14.52 ± 1.2 kPa
302.63 K | 15.71 ± 1.3 kPa
303.02 K | 16.03 ± 1.3 kPa
303.15 K | 16.11 ± 1.3 kPa
304.38 K | 17.04 ± 1.4 kPa
304.4 K | 17.05 ± 1.4 kPa
304.42 K | 17.07 ± 1.4 kPa
306.05 K | 18.33 ± 1.5 kPa
306.4 K | 18.6 ± 1.5 kPa
307.45 K | 19.4 ± 1.6 kPa
308.06 K | 19.91 ± 1.6 kPa
309.5 K | 21.12 ± 1.7 kPa
310.98 K | 22.47 ± 1.8 kPa
312.48 K | 23.89 ± 1.9 kPa
313.15 K | 24.56 ± 2 kPa
313.84 K | 25.25 ± 2 kPa
315.01 K | 26.47 ± 2.1 kPa
315.26 K | 26.67 ± 2.1 kPa
316.32 K | 27.88 ± 2.2 kPa
317.51 K | 29.23 ± 2.3 kPa
318.31 K | 30.09 ± 2.4 kPa
318.67 K | 30.56 ± 2.5 kPa
319.81 K | 31.93 ± 2.5 kPa
320.87 K | 33.27 ± 2.7 kPa
321.91 K | 34.59 ± 2.8 kPa
321.99 K | 34.69 ± 2.8 kPa
322.94 K | 35.95 ± 2.9 kPa
323.15 K | 36.27 ± 2.9 kPa
323.44 K | 36.59 ± 2.9 kPa
323.88 K | 37.23 ± 3 kPa
323.95 K | 37.33 ± 3 kPa
324.83 K | 38.56 ± 3.1 kPa
326.12 K | 40.45 ± 3.2 kPa
326.68 K | 41.25 ± 3.3 kPa
327.61 K | 42.68 ± 3.4 kPa
328.43 K | 43.97 ± 3.5 kPa
329.32 K | 45.4 ± 3.6 kPa
329.35 K | 45.43 ± 3.6 kPa
330.05 K | 46.59 ± 3.7 kPa
330.94 K | 48.07 ± 3.9 kPa
331.68 K | 49.32 ± 4 kPa
332.02 K | 49.89 ± 4 kPa
332.41 K | 50.6 ± 4 kPa
333.11 K | 51.87 ± 4.2 kPa
333.15 K | 51.92 ± 4.2 kPa
333.83 K | 53.15 ± 4.2 kPa
333.86 K | 53.19 ± 4.3 kPa
334.53 K | 54.47 ± 4.4 kPa
335.26 K | 55.85 ± 4.5 kPa
335.64 K | 56.56 ± 4.5 kPa
335.95 K | 57.19 ± 4.6 kPa
336.7 K | 58.63 ± 4.7 kPa
337.36 K | 59.96 ± 4.8 kPa
338.06 K | 61.39 ± 4.9 kPa and 61.4 ± 4.9 kPa
338.65 K | 62.63 ± 5 kPa
338.67 K | 62.64 ± 5 kPa
339.29 K | 63.95 ± 5.1 kPa
339.92 K | 65.29 ± 5.2 kPa
340.54 K | 66.63 ± 5.3 kPa
341.12 K | 67.95 ± 5.4 kPa
341.72 K | 69.29 ± 5.5 kPa
342.32 K | 70.65 ± 5.7 kPa
342.88 K | 71.93 ± 5.8 kPa
343.15 K | 72.6 ± 5.8 kPa
343.43 K | 73.25 ± 5.9 kPa
344.05 K | 74.73 ± 6 kPa
344.55 K | 75.96 ± 6.1 kPa
345.08 K | 77.27 ± 6.2 kPa
345.69 K | 78.76 ± 6.3 kPa
346.18 K | 80 ± 6.4 kPa
346.67 K | 81.25 ± 6.5 kPa
347.18 K | 82.56 ± 6.6 kPa and 82.57 ± 6.6 kPa
347.69 K | 83.89 ± 6.7 kPa
348.19 K | 85.23 ± 6.8 kPa
348.65 K | 86.49 ± 6.9 kPa
349.19 K | 87.93 ± 7 kPa
349.72 K | 89.43 ± 7.2 kPa
350.18 K | 90.64 ± 7.2 kPa
350.25 K | 90.87 ± 7.3 kPa
350.67 K | 92.07 ± 7.4 kPa
351.1 K | 93.27 ± 7.5 kPa
351.57 K | 94.63 ± 7.6 kPa
352.01 K | 95.92 ± 7.7 kPa
352.45 K | 97.23 ± 7.8 kPa
352.9 K | 98.57 ± 7.9 kPa
353.15 K | 99.31 ± 8 kPa
353.36 K | 99.95 ± 8 kPa
